Results published in US20050064005A1, “Active agent delivery systems including a miscible polymer blend, medical devices, and methods” (priority 2003, published 2005).

Assay: In vitro elution kinetics of dual active agent release from coated stents in PBS at 37° C.
Format: physicochemical
Protocol: The in vitro elution kinetics of dual release was carried out in PBS and at 37° C. The stent was crimped on a stent delivery system and then expanded. After expansion, the physical aspects of the stent were noted prior to placing the stent inside a vial containing 3 milliliters (ml) of PBS. The vial was placed in a shaker at 37° C. and at certain time intervals; the whole solution (3 ml) was removed and replaced with fresh PBS. The amount of each active agent in each dual release system was determined by UV-Vis spectrophotometer using wavelengths of 250 nanometers (nm) for mycophenolic acid and 359 nm for sulfasalazine and solving simultaneous equations of active agent mixtures.

| release kinetics of the active agent in the inner layer (stent system of FIG. 1 with TECOPLAST middle barrier layer (FIG. 3) versus without barrier (FIG. 2), PBS, 37° C.) | SMILES | release rate of sulfasalazine (from blends of TECOPLAST and TECOPHILIC polyurethanes as outer layer (FIG. 4)) |
| --- | --- | --- |
| slowed down significantly | COc1c(C)c2c(c(O)c1C/C=C(\C)CCC(=O)O)C(=O)OC2 [mycophenolic acid] | – |
| – | O=C(O)c1cc(/N=N/c2ccc(S(=O)(=O)Nc3ccccn3)cc2)ccc1O [sulfasalazine] | increased as the percentage of TECOPHILIC polyurethane in the blend increased |
